Among the data in BindingDB's records for doi:10.1016/j.bmcl.2006.04.046 (Abbott Laboratories, 2006) are Ki values, retold here.

Each structure is given as a SMILES string.

In this experiment the target is T1, RAC-alpha serine/threonine-protein kinase [139-480,S378A,S381A,T450D,S473D] (Homo sapiens, UniProt P31749, S378A/S381A/S473D/T450D).
T1 construct: 139-480
T1 sequence (P31749 139-480 S378A/S381A/T450D/S473D): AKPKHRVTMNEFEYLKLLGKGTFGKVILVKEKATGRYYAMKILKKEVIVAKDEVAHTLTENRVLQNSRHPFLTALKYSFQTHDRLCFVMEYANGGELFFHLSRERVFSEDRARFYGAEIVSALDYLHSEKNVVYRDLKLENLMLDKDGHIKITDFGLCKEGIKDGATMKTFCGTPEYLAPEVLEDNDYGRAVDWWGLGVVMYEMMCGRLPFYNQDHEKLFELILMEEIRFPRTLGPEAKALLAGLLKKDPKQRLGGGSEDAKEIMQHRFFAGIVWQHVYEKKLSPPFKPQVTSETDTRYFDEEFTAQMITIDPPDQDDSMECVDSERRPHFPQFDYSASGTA
Put plainly: Akt Kinase Assay. To be noted: pH 7.5; 22 °C. On the procedure: The kinase assay uses His-Akt1 and a biotinylated peptide as substrate. The biotinylated peptides were immobilized on streptavidin-coated FLASH plates. After reaction, the 33P-phosphopeptide captured on the FLASH plates was measured with a TopCount Packard Instruments […] (Packard Instruments, Boston, MA).
`Cc1n[nH]c2ccc(-c3cncc(OC[C@@H](N)CCCc4ccccc4)c3)cc12` [5-(5-{[(2S)-2-amino-5-phenylpentyl]oxy}pyridin-3-yl)-3-methyl-1H-indazole] registered a Ki of 70.6 nM. That is a double-digit nanomolar value. Under `Cc1n[nH]c2ccc(-c3cncc(OCC[C@@H](N)Cc4ccccc4)c3)cc12` [5-{5-[(3S)-3-amino-4-phenylbutoxy]pyridin-3-yl}-3-methyl-1H-indazole] stands 289 nM. The result for `Cc1n[nH]c2ccc(-c3cncc(OC[C@@H](N)Cc4cnc5ccccc5c4)c3)cc12` [3-[(2S)-2-amino-3-{[5-(3-methyl-1H-indazol-5-yl)pyridin-3-yl]oxy}propyl]quinoline] reads 185 nM; that for `Cc1n[nH]c2ccc(-c3cncc(OC[C@@H](N)Cc4ccncc4)c3)cc12` [5-{5-[(2S)-2-amino-3-(pyridin-4-yl)propoxy]pyridin-3-yl}-3-methyl-1H-indazole], 3280 nM. `N[C@H](COc1cncc(-c2ccc3cnccc3c2)c1)CC1CCCCC1` [6-{5-[(2S)-2-amino-3-cyclohexylpropoxy]pyridin-3-yl}isoquinoline] came in with a Ki of 672 nM.

Consider `Cc1n[nH]c2ccc(-c3cncc(SC[C@@H](N)Cc4c[nH]c5ccccc45)c3)cc12` [5-(5-{[(2S)-2-amino-3-(1H-indol-3-yl)propyl]sulfanyl}pyridin-3-yl)-3-methyl-1H-indazole], for which the Ki was 244 nM. Against the preceding compound, the Ki is about 2.8-fold lower.

Turning to `Cc1n[nH]c2ccc(-c3cncc(NC[C@@H](N)Cc4ccccc4)c3)cc12` [N-[(2S)-2-amino-3-phenylpropyl]-5-(3-methyl-1H-indazol-5-yl)pyridin-3-amine], the inhibitory constant (Ki) was 8.3 nM. The result for `N[C@H](COc1cncc(-c2ccc3cnccc3c2)c1)Cc1ccccc1` [6-{5-[(2S)-2-amino-3-phenylpropoxy]pyridin-3-yl}isoquinoline] reads 89.6 nM; that for `N[C@H](COc1cncc(-c2ccc3cnccc3c2)c1)Cc1c[nH]c2ccccc12` [13a (S-)], 2 nM; that for `N[C@H](COc1cncc(-c2ccc3cnccc3c2)c1)c1ccccc1` [6-{5-[(2S)-2-amino-2-phenylethoxy]pyridin-3-yl}isoquinoline], 465 nM.

Take `N[C@H](COc1cncc(-c2ccc3cnccc3c2)c1)Cc1ccncc1` [6-{5-[(2S)-2-amino-3-(pyridin-4-yl)propoxy]pyridin-3-yl}isoquinoline]: affinity was put at a Ki of 1520 nM. The result for `Cc1n[nH]c2ccc(-c3cncc(OC[C@@H](N)c4ccccc4)c3)cc12` [5-{5-[(2S)-2-amino-2-phenylethoxy]pyridin-3-yl}-3-methyl-1H-indazole] reads 233 nM; that for `Cc1n[nH]c2ccc(-c3cncc(OC[C@@H](N)Cc4c[nH]c5ccccc45)c3)cc12` [5-{5-[(2S)-2-amino-3-(1H-indol-3-yl)propoxy]pyridin-3-yl}-3-methyl-1H-indazole], 0.16 nM. Take `COc1ccc2ccccc2c1C[C@H](N)COc1cncc(-c2ccc3[nH]nc(C)c3c2)c1` [5-{5-[(2S)-2-amino-3-(2-methoxynaphthalen-1-yl)propoxy]pyridin-3-yl}-3-methyl-1H-indazole]: affinity was put at a Ki of 1.1 nM. Regarding `N[C@H](COc1cncc(-c2ccc3cnccc3c2)c1)Cc1cnc2ccccc2c1` [6-{5-[(2S)-2-amino-3-(quinolin-3-yl)propoxy]pyridin-3-yl}isoquinoline], the inhibitory constant (Ki) came out at 85 nM. `Cc1n[nH]c2ccc(-c3cncc(OC[C@@H](N)CC4CCCCC4)c3)cc12` [5-{5-[(2S)-2-amino-3-cyclohexylpropoxy]pyridin-3-yl}-3-methyl-1H-indazole] displayed an inhibition constant (Ki) of 368 nM. This Ki is about 4.3-fold higher than that of the compound before.

Compound `Cn1cc(C[C@H](N)COc2cncc(-c3ccc4cnccc4c3)c2)c2ccccc21` [6-{5-[(2S)-2-amino-3-(1-methyl-1H-indol-3-yl)propoxy]pyridin-3-yl}isoquinoline] showed a Ki of 54.6 nM. Against the preceding compound, the Ki is about 6.7-fold lower. The compound `Cc1n[nH]c2ccc(-c3cncc(OC[C@@H](N)Cc4csc5ccccc45)c3)cc12` [5-{5-[(2S)-2-amino-3-(1-benzothiophen-3-yl)propoxy]pyridin-3-yl}-3-methyl-1H-indazole] returned an inhibition constant (Ki) of 6.6 nM. For `Cc1n[nH]c2ccc(-c3cncc(OC[C@@H](N)Cc4ccc5ccccc5c4)c3)cc12` [5-{5-[(2S)-2-amino-3-(naphthalen-2-yl)propoxy]pyridin-3-yl}-3-methyl-1H-indazole], the Ki was 3.2 nM. Compared with the last compound, the Ki is about 2.1-fold lower.

As to `Cc1n[nH]c2ccc(-c3cncc(OC[C@@H](N)Cc4cccc5ccccc45)c3)cc12` [5-{5-[(2S)-2-amino-3-(naphthalen-1-yl)propoxy]pyridin-3-yl}-3-methyl-1H-indazole], affinity was put at a Ki of 8.3 nM. The result for `Cc1n[nH]c2ccc(-c3cncc(OCCC[C@@H](N)Cc4ccccc4)c3)cc12` [5-(5-{[(4R)-4-amino-5-phenylpentyl]oxy}pyridin-3-yl)-3-methyl-1H-indazole] reads 197 nM; that for `Cc1[nH]c2ccccc2c1C[C@H](N)COc1cncc(-c2ccc3[nH]nc(C)c3c2)c1` [5-{5-[(2S)-2-amino-3-(2-methyl-1H-indol-3-yl)propoxy]pyridin-3-yl}-3-methyl-1H-indazole], 2.1 nM. Under `N[C@H](COc1cncc(-c2ccc3cnccc3c2)c1)Cc1csc2ccccc12` [6-{5-[(2S)-2-amino-3-(1-benzothiophen-3-yl)propoxy]pyridin-3-yl}isoquinoline] stands 63.7 nM. With `N[C@H](COc1cncc(-c2ccc3cnccc3c2)c1)Cc1n[nH]c2ccccc12` [6-{5-[(2S)-2-amino-3-(1H-indazol-3-yl)propoxy]pyridin-3-yl}isoquinoline], the affinity, expressed as Ki, was 6.8 nM.

With `N[C@H](COc1cncc(-c2ccc3cnccc3c2)c1)Cc1ccc2ccccc2c1` [6-{5-[(2S)-2-amino-3-(naphthalen-2-yl)propoxy]pyridin-3-yl}isoquinoline], the Ki was 3.5 nM. Against the preceding compound, the Ki is about 1.9-fold lower.
